pEC50, pIC50: −log10 of the molar value. Read-outs that look alike come from different tables or passages of the source.
Legend:
[1] = test system: SW480; assay: cells; assay type: cell-based; details: Homo sapiens
[2] = test system: NCI-H716 cells; assay: cells; assay type: cell-based, Human
[3] = molecular target: T1, hFLT3 (Homo sapiens, UniProt P36888); assay: Cerep LANCE kinase assay hFLT3 (S1 assay 35); assay type: biochemical; details: read-out: FLT3
T1 construct: purchased Cerep (LANCE kinase assay platform, contract assay)

[4] = molecular target: T2, hp70S6K1 (RPS6KB1) (Homo sapiens, UniProt P23443); assay: Cerep LANCE kinase assay hp70S6K1 (S1 assay 31); assay type: biochemical; details: read-out: p70S6K1
T2 construct: purchased Cerep (LANCE kinase assay platform, contract assay)

[5] = test system: RKO; assay: cells; assay type: cell-based
[6] = test system: HCT116; assay: cells; assay type: cell-based; details: Homo sapiens
[7] = test system: INS-1E cells; assay: cells; assay type: cell-based, rat
[8] = test system: HT-29; assay: cells; assay type: cell-based
[9] = test system: Colo320; assay: cells; assay type: cell-based; details: Homo sapiens
[10] = test system: HCT116 cells treated with a GSK3β inhibitor; assay: cells; assay type: cell-based; details: Homo sapiens
[11] = test system: nuclear β-catenin in C2C12 cells; assay: cells; assay type: cell-based
[12] = molecular target: T3, hKDR (Homo sapiens, UniProt P35968); assay: Cerep LANCE kinase assay hKDR (S1 assay 32); assay type: biochemical; details: read-out: KDR
T3 construct: purchased Cerep (LANCE kinase assay platform, contract assay)

[13] = molecular target: T4, hGSK3b (Homo sapiens, UniProt P49841); assay: Cerep LANCE kinase assay hGSK3b (S1 assay 34); assay type: biochemical; details: read-out: GSK3b
T4 construct: purchased Cerep (LANCE kinase assay platform, contract assay)

[14] = test system: endothelial tube formation in co-cultures of ECFCs and ADSCs treated with VEGF; assay: cells; assay type: cell-based, human
[15] = test system: DLD-1; assay: cells; assay type: cell-based; details: Homo sapiens
[16] = test system: HeLa cells; assay: cells; assay type: cell-based; details: for pEC50: Homo sapiens, HeLa, read-out: CellCycle G2/M
[17] = molecular target: T5, hJAK2 (Homo sapiens, UniProt O60674); assay: Cerep LANCE kinase assay hJAK2 (S1 assay 33); assay type: biochemical; details: read-out: JAK2
T5 construct: purchased Cerep (LANCE kinase assay platform, contract assay)

[18] = test system: SNU-C1; assay: cells; assay type: cell-based; details: Homo sapiens
[19] = SW480, read-out: Basal_Viability ATP SW480
[20] = Homo sapiens, NCI-H716, read-out: GLP 1 Secretion
[21] = Homo sapiens, RKO, read-out: Basal_Viability ATP RKO
[22] = HCT-116, read-out: Basal_Viability ATP HCT116
[23] = Rattus norvegicus, INS-1E, read-out: Insulin Secretion
[24] = Homo sapiens, HT-29, read-out: Basal_Viability ATP HT-29
[25] = COLO 320, read-out: Basal_Viability ATP Colo 320
[26] = HCT-116, read-out: GSK3b inh pretreated_Viability ATP HCT116
[27] = Mus musculus, C2C12, read-out: Wnt Pathway
[28] = Homo sapiens, read-out: Anti-Angiogenesis
[29] = DLD-1, read-out: Basal_Viability ATP DLD-1
[30] = SNU-C1, read-out: Basal_Viability ATP SNU-C1
[31] = SW480, 72 h, read-out: SW480 viab. IC50
[32] = Homo sapiens, NCI-H716, read-out: GLP1 sec. EC50
[33] = Homo sapiens, RKO, 72 h, read-out: RKO viab. IC50
[34] = HCT-116, 72 h, read-out: HCT-116 viab. IC50
[35] = Rattus norvegicus, INS-1E, read-out: Ins. sec. EC50
[36] = Homo sapiens, HT-29, 72 h, read-out: HT-29 viab. IC50
[37] = COLO 320, 72 h, read-out: Colo320 viab. IC50
[38] = HCT-116, 72 h, read-out: HCT-116 (GSK3β) viab. IC50
[39] = Mus musculus, C2C12, read-out: Wnt pot. EC50
[40] = Homo sapiens, read-out: Anti-Angio IC50
[41] = DLD-1, 72 h, read-out: DLD-1 viab. IC50
[42] = SNU-C1, 72 h, read-out: SNU-C1 viab. IC50

T5 sequence (O60674 whole entry): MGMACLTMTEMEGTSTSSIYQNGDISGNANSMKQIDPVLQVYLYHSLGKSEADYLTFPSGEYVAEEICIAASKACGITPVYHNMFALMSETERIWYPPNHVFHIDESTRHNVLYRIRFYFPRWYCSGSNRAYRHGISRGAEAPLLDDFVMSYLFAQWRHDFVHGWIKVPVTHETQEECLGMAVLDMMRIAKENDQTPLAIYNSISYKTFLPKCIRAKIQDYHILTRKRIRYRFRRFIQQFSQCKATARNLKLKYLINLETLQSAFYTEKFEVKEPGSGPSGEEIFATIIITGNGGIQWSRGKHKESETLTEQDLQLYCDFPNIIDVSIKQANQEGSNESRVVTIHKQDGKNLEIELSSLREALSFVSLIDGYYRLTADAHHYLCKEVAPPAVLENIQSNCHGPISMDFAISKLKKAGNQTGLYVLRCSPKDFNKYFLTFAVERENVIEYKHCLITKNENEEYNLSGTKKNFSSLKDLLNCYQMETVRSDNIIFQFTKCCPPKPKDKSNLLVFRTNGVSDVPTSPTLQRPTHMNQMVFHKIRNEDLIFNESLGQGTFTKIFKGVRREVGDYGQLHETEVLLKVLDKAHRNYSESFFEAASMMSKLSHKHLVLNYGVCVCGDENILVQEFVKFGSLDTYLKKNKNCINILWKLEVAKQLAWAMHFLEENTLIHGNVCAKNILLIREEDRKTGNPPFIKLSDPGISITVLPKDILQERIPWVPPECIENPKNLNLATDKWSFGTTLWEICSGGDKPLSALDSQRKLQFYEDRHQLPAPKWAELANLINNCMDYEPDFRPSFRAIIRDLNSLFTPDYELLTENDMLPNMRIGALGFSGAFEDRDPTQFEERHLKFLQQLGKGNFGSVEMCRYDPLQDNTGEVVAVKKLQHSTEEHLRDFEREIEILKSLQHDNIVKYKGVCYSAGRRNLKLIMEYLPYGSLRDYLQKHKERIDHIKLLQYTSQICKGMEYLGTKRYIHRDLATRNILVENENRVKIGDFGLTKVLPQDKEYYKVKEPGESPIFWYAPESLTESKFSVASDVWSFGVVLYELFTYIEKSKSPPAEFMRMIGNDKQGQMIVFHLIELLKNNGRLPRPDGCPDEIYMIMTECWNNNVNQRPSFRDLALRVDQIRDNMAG
T3 sequence (P35968 20-1356): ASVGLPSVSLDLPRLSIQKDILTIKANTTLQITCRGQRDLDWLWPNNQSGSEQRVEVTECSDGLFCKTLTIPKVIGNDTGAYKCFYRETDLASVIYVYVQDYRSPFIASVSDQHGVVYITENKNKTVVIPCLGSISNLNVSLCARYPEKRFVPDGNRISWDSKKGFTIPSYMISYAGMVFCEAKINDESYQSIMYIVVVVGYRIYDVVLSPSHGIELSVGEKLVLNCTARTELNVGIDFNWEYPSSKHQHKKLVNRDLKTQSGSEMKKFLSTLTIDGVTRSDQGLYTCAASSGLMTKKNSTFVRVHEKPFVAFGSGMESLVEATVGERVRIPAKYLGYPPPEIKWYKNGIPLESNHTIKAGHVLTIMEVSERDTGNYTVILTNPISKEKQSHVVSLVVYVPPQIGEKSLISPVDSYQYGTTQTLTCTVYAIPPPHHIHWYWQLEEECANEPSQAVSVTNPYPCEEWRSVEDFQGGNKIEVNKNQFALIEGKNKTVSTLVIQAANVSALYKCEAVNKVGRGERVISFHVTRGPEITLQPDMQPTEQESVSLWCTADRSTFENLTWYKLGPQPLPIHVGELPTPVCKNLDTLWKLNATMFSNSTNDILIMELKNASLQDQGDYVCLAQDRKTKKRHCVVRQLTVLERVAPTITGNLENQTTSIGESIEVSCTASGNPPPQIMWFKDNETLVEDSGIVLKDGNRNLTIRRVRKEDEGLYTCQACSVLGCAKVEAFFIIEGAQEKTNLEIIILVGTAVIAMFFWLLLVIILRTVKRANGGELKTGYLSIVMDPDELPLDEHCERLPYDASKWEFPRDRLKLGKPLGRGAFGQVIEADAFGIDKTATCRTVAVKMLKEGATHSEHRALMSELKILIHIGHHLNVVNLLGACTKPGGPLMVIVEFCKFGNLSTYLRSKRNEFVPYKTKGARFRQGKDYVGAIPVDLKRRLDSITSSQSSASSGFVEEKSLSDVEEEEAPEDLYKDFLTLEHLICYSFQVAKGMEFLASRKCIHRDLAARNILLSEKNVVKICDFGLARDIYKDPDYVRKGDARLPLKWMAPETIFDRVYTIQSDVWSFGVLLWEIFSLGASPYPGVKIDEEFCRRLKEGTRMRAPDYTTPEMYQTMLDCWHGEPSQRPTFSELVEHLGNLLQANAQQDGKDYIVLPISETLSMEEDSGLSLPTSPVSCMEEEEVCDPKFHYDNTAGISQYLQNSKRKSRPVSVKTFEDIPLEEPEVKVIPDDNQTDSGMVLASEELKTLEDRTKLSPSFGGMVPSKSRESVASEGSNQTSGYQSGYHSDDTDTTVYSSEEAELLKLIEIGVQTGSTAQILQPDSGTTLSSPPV
T2 sequence (P23443 whole entry): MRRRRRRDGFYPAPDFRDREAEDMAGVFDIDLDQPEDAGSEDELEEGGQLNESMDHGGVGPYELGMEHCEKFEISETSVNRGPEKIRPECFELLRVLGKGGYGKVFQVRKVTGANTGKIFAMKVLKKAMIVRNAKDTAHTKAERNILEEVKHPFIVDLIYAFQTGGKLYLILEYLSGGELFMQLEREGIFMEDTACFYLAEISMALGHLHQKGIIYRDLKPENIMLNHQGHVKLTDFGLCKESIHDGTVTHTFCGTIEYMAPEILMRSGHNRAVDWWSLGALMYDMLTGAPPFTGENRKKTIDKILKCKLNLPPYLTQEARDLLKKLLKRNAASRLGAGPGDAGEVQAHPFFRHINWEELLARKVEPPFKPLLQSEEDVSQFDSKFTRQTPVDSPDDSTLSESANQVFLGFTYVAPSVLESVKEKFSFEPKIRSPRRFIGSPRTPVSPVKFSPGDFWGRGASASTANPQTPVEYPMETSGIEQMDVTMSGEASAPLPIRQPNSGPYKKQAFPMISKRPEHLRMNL
T4 sequence (P49841 whole entry): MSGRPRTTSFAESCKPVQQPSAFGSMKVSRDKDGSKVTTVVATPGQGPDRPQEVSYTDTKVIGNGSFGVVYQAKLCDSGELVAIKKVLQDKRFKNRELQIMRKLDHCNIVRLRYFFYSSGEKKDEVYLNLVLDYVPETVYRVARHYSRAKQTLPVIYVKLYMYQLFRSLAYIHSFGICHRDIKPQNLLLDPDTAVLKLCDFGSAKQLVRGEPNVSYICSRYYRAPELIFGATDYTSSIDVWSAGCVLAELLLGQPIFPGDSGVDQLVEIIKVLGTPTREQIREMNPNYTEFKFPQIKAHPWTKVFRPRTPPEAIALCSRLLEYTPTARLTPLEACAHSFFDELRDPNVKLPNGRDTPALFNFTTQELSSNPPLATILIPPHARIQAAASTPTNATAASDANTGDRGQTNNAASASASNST
T1 sequence (P36888 27-993): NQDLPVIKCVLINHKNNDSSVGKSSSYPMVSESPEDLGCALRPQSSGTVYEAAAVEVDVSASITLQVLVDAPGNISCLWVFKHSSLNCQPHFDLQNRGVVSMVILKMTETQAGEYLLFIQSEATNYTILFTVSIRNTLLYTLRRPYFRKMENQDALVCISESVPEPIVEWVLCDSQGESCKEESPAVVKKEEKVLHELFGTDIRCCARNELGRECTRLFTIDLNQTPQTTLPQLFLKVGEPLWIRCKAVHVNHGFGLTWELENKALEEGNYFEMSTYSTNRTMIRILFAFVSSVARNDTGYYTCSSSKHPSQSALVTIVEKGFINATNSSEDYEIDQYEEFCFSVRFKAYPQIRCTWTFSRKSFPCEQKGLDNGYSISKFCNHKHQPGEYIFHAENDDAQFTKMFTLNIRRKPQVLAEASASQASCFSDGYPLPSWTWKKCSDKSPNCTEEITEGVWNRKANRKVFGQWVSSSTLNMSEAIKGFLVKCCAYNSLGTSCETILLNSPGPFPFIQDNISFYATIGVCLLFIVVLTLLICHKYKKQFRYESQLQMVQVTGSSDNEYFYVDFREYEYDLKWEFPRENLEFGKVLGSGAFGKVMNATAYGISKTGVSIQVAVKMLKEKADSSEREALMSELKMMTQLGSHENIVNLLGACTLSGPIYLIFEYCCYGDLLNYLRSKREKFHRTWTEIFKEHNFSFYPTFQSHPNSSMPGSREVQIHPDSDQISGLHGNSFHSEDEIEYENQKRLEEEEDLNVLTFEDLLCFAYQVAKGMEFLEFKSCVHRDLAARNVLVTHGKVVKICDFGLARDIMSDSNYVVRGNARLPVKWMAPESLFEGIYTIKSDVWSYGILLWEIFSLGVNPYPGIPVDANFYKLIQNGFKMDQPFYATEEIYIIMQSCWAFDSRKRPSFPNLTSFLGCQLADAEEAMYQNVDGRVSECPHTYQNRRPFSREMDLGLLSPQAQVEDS

SMILES: Nc1nc2nc[nH]c2c(=S)[nH]1 [Tioguanine]
- pIC50 [1, 19]: 6.40
- pEC50 [2, 20]: < 5.00
- pIC50 ([3]; kinase assay): < 4.70
- pIC50 ([4]; kinase assay): < 4.70
- pIC50 [5, 21]: 6.46
- pIC50 [6, 22]: 6.86
- pEC50 [7, 23]: < 5.00
- pIC50 [8, 24]: 7.31
- pIC50 [9, 25]: 6.43
- pIC50 [10, 26]: 6.79
- pEC50 [11, 27]: < 5.00
- pIC50 ([12]; kinase assay): < 4.70
- pIC50 ([13]; kinase assay): < 4.70
- pIC50 [14, 28]: 6.21
- pIC50 [15, 29]: 6.97
- pEC50 [16]: < 5.00
- pIC50 ([17]; kinase assay): < 4.70
- pIC50 [18, 30]: 5.36

SMILES: Cc1cc(C2CCCCC2)n(O)c(=O)c1 [ciclopirox]
- pIC50 [1, 19]: 6.33
- pEC50 [2, 20]: < 5.00
- pIC50 ([3]; kinase assay): < 4.70
- pIC50 ([4]; kinase assay): < 4.70
- pIC50 [5, 21]: 6.63
- pIC50 [6, 22]: 6.18
- pEC50 [7, 23]: < 5.00
- pIC50 [8, 24]: 5.15
- pIC50 [9, 25]: 6.68
- pIC50 [10, 26]: 6.41
- pEC50 [11, 27]: 5.98
- pIC50 ([12]; kinase assay): < 4.70
- pIC50 ([13]; kinase assay): < 4.70
- pIC50 [14, 28]: < 5.00
- pIC50 [15, 29]: 6.50
- pEC50 [16]: < 5.00
- pIC50 ([17]; kinase assay): < 4.70
- pIC50 [18, 30]: < 4.70

SMILES: O=C(O)c1ccc(-n2nc(-c3ccccc3O)nc2-c2ccccc2O)cc1 [deferasirox]
- pIC50 [1, 19]: 7.11
- pEC50 [2, 20]: < 5.00
- pIC50 [3]: < 4.70
- pIC50 [4]: < 4.70
- pIC50 [5, 21]: 7.00
- pIC50 [6, 22]: 6.36
- pEC50 [7, 23]: < 5.00
- pIC50 [8, 24]: 6.29
- pIC50 [9, 25]: 6.39
- pIC50 [10, 26]: 6.62
- pEC50 [11, 27]: < 5.00
- pIC50 [12]: < 4.70
- pIC50 [13]: < 4.70
- pIC50 [14, 28]: 5.68
- pIC50 [15, 29]: 6.19
- pEC50 [16]: < 5.00
- pIC50 [17]: 4.74
- pIC50 [18, 30]: 6.63

SMILES: Cc1nc(N)nc(N)c1-c1ccc(Cl)c(Cl)c1 [metoprine, reference compound]
- pIC50 [1, 31]: 6.29
- pIC50 [1, 19]: 6.29
- pEC50 [2, 32]: < 5.00
- pIC50 ([3]; kinase assay): < 4.70
- pIC50 ([4]; kinase assay): < 4.70
- pIC50 [5, 33]: 6.92
- pIC50 [5, 21]: 6.93
- pIC50 [6, 34]: 6.39
- pIC50 [6, 22]: 6.38
- pEC50 [7, 35]: < 5.00
- pIC50 [8, 36]: 6.03
- pIC50 [8, 24]: 6.03
- pIC50 [9, 37]: 5.70
- pIC50 [9, 25]: 5.69
- pIC50 [10, 38]: 7.23
- pIC50 [10, 26]: 7.23
- pEC50 [11, 27]: 7.52
- pEC50 [11, 39]: 7.52
- pIC50 ([12]; kinase assay): < 4.70
- pIC50 ([13]; kinase assay): < 4.70
- pIC50 [14, 40]: < 5.00
- pIC50 [15, 41]: 6.20
- pIC50 [15, 29]: 6.20
- pEC50 [16]: < 5.00
- pIC50 ([17]; kinase assay): < 4.70
- pIC50 [18, 42]: 5.66
- pIC50 [18, 30]: 5.66

SMILES: O=C1c2c(O)ccc(O)c2C(=O)c2c(NCCNCCO)ccc(NCCNCCO)c21 [mitoxantrone]
- pIC50 [1, 19]: 5.74
- pEC50 [2, 20]: < 5.00
- pIC50 ([3]; kinase assay): < 4.70
- pIC50 ([4]; kinase assay): < 4.70
- pIC50 [5, 21]: 5.99
- pIC50 [6, 22]: 5.91
- pEC50 [7, 23]: < 5.00
- pIC50 [8, 24]: 5.12
- pIC50 [9, 25]: 5.13
- pIC50 [10, 26]: 9.00
- pEC50 [11, 27]: 7.52
- pIC50 ([12]; kinase assay): < 4.70
- pIC50 ([13]; kinase assay): < 4.70
- pIC50 [14, 28]: 8.36
- pIC50 [15, 29]: 5.79
- pEC50 [16]: < 5.00
- pIC50 ([17]; kinase assay): < 4.70
- pIC50 [18, 30]: 5.76

SMILES: Cc1ccc2nc(N)[nH]c(=O)c2c1Sc1ccncc1 [nolatrexed, reference compound]
- pIC50 ([1]; SW480, 72 h, Table 2, 72 h, Cell TiterGlo, non-adherent, 20 coded, read-out: SW480 viab. IC50): 5.66
- pIC50 ([1]; SW480, basal, read-out: Basal_Viability ATP SW480): 5.65
- pEC50 ([2]; Homo sapiens, NCI-H716; read-out: GLP1 sec. EC50): < 5.00
- pIC50 [3]: < 4.70
- pIC50 [4]: 4.75
- pIC50 ([5]; Homo sapiens, RKO; Table 2; 72 h, Cell TiterGlo, non-adherent; 20 coded; read-out: RKO viab. IC50): 6.47
- pIC50 ([5]; Homo sapiens, RKO; read-out: Basal_Viability ATP RKO): 6.46
- pIC50 ([6]; HCT-116, 72 h, read-out: HCT-116 viab. IC50, Table 2, basal, 72 h, Cell TiterGlo, non-adherent, 20 coded): 5.46
- pIC50 ([6]; HCT-116, basal, read-out: Basal_Viability ATP HCT116): 5.46
- pEC50 ([7]; Rattus norvegicus, INS-1E; read-out: Ins. sec. EC50): < 5.00
- pIC50 ([8]; Homo sapiens, HT-29; Table 2; 72 h, Cell TiterGlo, non-adherent; 20 coded; read-out: HT-29 viab. IC50): 5.33
- pIC50 ([8]; Homo sapiens, HT-29; read-out: Basal_Viability ATP HT-29): 5.32
- pIC50 ([9]; COLO 320, Table 2, 72 h, Cell TiterGlo, non-adherent, 20 coded, read-out: Colo320 viab. IC50): < 4.70
- pIC50 [10, 38]: 6.08
- pIC50 [10, 26]: 6.08
- pEC50 ([11]; Mus musculus, C2C12, IC50 / EC50; C2C12 beta-catenin translocation; read-out: Wnt Pathway): 6.61
- pEC50 ([11]; Mus musculus, C2C12; read-out: Wnt pot. EC50): 6.62
- pIC50 [12]: < 4.70
- pIC50 [13]: < 4.70
- pIC50 ([14]; Homo sapiens, IC50 / EC50; endothelial tube area, ADSC/ECFC co-culture; read-out: Anti-Angiogenesis): 5.13
- pIC50 ([14]; Homo sapiens; read-out: Anti-Angio IC50): 5.13
- pIC50 [15, 41]: < 4.70
- G2/M IC50 / EC50 [16]: 20 (values shown as 20 indicate that the compound was tested in concentration-response and showed no response at the highest concentration tested (e.g. IC50 > 20 μM))
- pEC50 ([16]; IC50 / EC50): < 5.00
- pIC50 [17]: < 4.70
- pIC50 ([18]; SNU-C1, 72 h, Table 2, 72 h, Cell TiterGlo, non-adherent, 20 coded, read-out: SNU-C1 viab. IC50): < 4.70

SMILES: Cc1nc2ccc(CN(C)c3ccc(C(=O)N[C@@H](CCC(=O)O)C(=O)O)s3)cc2c(=O)[nH]1 [raltitrexed, reference compound]
- pIC50 [1, 31]: 9.00
- pEC50 [2, 32]: < 5.00
- pIC50 [3]: < 4.70
- pIC50 [4]: < 4.70
- pIC50 [5, 33]: 8.52
- pIC50 [5, 21]: 8.54
- pIC50 [6, 34]: 8.40
- pIC50 [6, 22]: 8.37
- pEC50 [7, 35]: < 5.00
- pIC50 [8, 36]: < 4.70
- pIC50 [9, 37]: < 4.70
- pIC50 [10, 38]: 8.70
- pIC50 [10, 26]: 8.64
- pEC50 [11, 27]: 8.38
- pEC50 [11, 39]: 8.40
- pIC50 [12]: < 4.70
- pIC50 [13]: 5.40
- pIC50 [14, 40]: 6.46
- pIC50 [14, 28]: 6.45
- pIC50 [15, 41]: < 4.70
- pEC50 [16]: < 5.00
- pIC50 [17]: < 4.70
- pIC50 [18, 42]: < 4.70

From paper PMC4503722, “Novel Phenotypic Outcomes Identified for a Public Collection of Approved Drugs from a Publicly Accessible Panel of Assays” (PLoS ONE, 2015)
